# Source: US7517646B2, “Functional molecule and process for producing the same” (Fujitsu Limited, priority 2002, dated 2009)
# Target: human albumin (Homo sapiens, UniProt P02768)
# Test: affinity column filled with beads bound with human albumin; binding of the selected functional molecule
# Settings: functional molecule selected from the random polymer pool N20-M20-N20 on a human albumin affinity column
# Description: First, an affinity column, which was filled with beads bound with human albumin as the target, was prepared and a solution containing the random polymer pool was passed through this column to leave at a specific condition and, then, the modified oligonucleotide sequence showing the affinity to the target adsorbed to the column (FIG. 3B). Subsequently, remained components other than the remained oligonucleotide sequence were removed by washing sufficiently with a buffer solution and the solution containing human albumin was passed through the column to select and collect the oligonucleotide containing the modified oligonucleotide random sequence (FIG. 3C). The step described above is the selecting step.
# This selected modified oligonucleotide sequence was amplified by PCR followed by cloning to know the base sequence of the DNA. As the result, a portion of the base sequence of the determined modified oligonucleotide was “ATGCTCTAGCCCCT” (SEQ ID NO: 1) (FIG. 3D). The step described above is the determining step.
# Translating this base sequence on the basis of the relation table presented “AU1GC6U4CU3AGC6C3CC5T” resulting in identification of a structure of the functional molecule (FIG. 3D). The step described above is the translating step.
# Chain of human albumin (P02768 25-609): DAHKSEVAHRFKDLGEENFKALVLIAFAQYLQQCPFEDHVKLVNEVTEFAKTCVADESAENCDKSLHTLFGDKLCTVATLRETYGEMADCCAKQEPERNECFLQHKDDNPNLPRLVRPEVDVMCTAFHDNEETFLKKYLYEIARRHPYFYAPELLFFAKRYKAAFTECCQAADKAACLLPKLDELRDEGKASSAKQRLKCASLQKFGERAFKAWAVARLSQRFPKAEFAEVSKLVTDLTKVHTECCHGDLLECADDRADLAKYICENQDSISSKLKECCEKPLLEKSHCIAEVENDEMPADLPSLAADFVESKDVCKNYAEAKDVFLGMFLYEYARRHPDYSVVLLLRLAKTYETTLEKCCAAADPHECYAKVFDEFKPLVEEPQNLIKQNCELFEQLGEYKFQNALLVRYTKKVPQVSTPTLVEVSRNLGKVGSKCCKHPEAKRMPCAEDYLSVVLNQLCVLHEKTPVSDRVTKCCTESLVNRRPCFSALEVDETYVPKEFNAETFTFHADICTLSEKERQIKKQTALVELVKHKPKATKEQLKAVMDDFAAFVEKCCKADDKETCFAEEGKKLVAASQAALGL
substance,measurement,value
"AU1GC6U4CU3AGC6C3CC5T (AUGCUCUAGCCCCT; modified nucleotides, further chemistry not given here) [functional molecule]",binding to human albumin,bound specifically with human albumin
